Assay results published in patent publication US9193729B2, “Inhibiting transient receptor potential ion channel TRPA1” (Cubist Pharmaceuticals, Inc., priority 2011, dated 2015).
“Also recorded” adds a separate entry of the source.

Columns and labels:
rTRPA1 = rTRPA1 (Rattus norvegicus, UniProt Q6RI86); assay: Whole-cell patch clamp inhibition of rTRPA1; format: cell-based; conditions: rTRPA1, 10 micromolar AITC activation; read-out: IC50 Inward current
Description: (§1) Data for TRPA1 inhibition and the selectivity of TRPA1 inhibition was obtained by this method for the compound of Formula (Ia) and included in Table 1 and Table 2. All currents were recorded in whole-cell configuration using EPC-9 and EPC-10 amplifiers and Patchmaster software (HEKA). […] The standard pipette solution consisted of 140 mM CsAsp, 10 mM EGTA, 10 mM HEPES, 2.27 mM MgCl2, 1.91 mM CaCl2, 4 mM MgATP, and 0.1-0.3 mM Na2GTP, with pH adjusted to 7.2 with CsOH. In addition, a solution containing 145 mM CsCl, 10 mM HEPES, 10 mM EGTA and 1 mM MgCl2 (pH 7.2 adjusted with CsOH) can be used. The standard bath solution contained 150 mM NaCl, 10 mM HEPES, 10 mM glucose, 4.5 mM KCl, 1 mM EGTA, 3 mM MgCl2, with pH adjusted to 7.4 with NaOH. In some instances, 2 mM CaCl2 was added in place of EGTA and the concentration of MgCl2 was reduced to 1 mM.
(§2) Data were collected either by continuous recordings at −60 mV or by applying voltage ramps from a holding potential of 0 mV every 4 s. […] Inward and outward currents were analyzed from the ramps at −80 and 80 mV, respectively. […]
(§3) Solutions were switched using a gravity-fed continuous focal perfusion system. […] Temperatures were confirmed using a thermistor (Warner Instruments, TA-29), with temperatures at the recorded cell estimated to be within +/−2° C. of those reported. […]

hTRPC5 = molecular target: T1, hTRPC5 (Homo sapiens, UniProt Q9UL62); assay: Patch clamp selectivity, hTRPC5; format: cell-based; conditions: hTRPC5 vs TRPA1
T1 sequence (Q9UL62 1-973): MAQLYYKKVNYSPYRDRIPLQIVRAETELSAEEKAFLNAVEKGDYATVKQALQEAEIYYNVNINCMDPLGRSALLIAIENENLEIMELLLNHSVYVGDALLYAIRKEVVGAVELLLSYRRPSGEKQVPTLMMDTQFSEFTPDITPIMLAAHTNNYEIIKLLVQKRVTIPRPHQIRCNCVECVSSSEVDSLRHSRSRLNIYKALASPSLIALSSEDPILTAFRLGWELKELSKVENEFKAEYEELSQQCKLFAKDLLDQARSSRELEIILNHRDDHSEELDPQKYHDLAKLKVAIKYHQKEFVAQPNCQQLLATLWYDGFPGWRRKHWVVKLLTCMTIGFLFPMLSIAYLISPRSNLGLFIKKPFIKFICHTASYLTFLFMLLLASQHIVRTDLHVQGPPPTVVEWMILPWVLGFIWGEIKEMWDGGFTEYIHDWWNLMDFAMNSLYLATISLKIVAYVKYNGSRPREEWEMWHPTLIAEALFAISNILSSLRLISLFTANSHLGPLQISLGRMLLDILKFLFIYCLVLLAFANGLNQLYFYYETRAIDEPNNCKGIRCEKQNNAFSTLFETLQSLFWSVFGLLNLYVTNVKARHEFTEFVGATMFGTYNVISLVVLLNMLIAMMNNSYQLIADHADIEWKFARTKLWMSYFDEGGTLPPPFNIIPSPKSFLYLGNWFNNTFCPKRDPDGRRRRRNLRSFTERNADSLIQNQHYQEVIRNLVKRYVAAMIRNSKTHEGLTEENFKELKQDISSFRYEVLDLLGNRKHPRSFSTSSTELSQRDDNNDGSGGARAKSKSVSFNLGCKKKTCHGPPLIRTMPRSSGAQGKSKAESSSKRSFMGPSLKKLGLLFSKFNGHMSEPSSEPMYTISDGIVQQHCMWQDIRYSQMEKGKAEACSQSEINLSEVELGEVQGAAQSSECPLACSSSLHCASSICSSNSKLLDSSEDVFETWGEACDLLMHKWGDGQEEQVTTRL
Description: as §1, §2, §3

hTRPM8 = hTRPM8 (Homo sapiens, UniProt Q7Z2W7); assay: Patch clamp selectivity, hTRPM8; format: cell-based; conditions: hTRPM8 vs TRPA1
Sequence of hTRPM8 (Q7Z2W7 whole entry): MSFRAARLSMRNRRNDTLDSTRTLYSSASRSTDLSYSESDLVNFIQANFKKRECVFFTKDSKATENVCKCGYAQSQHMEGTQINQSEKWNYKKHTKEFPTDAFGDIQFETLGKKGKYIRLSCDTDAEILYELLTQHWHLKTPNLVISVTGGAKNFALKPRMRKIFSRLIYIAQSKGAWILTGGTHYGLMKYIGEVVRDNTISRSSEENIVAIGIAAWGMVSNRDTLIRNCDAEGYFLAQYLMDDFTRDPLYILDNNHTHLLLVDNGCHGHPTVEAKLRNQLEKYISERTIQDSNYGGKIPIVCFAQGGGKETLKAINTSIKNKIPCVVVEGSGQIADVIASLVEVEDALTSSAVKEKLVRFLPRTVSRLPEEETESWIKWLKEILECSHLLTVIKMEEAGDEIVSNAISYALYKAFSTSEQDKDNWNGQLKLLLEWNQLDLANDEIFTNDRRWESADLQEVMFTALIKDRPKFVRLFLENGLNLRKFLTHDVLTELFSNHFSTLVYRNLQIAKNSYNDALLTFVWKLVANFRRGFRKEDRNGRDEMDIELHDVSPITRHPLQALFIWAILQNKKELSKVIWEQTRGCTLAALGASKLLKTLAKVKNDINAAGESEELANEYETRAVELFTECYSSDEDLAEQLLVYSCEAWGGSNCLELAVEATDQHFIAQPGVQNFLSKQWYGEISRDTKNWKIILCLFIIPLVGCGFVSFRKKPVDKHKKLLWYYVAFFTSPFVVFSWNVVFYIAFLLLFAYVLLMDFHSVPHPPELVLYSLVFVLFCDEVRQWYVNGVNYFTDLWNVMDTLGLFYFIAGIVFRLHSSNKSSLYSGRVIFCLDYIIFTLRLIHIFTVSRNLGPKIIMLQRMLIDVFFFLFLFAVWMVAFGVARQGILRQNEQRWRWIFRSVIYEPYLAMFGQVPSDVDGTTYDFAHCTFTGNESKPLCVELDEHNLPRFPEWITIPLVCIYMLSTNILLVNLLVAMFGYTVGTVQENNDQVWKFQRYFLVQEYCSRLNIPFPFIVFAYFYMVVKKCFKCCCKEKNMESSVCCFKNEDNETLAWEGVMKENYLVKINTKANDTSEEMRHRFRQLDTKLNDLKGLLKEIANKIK
Description: as §1, §2, §3

hERG = hERG (Homo sapiens, UniProt Q12809); assay: Patch clamp selectivity, hERG; format: cell-based; conditions: hERG vs TRPA1
Sequence of hERG (Q12809 whole entry): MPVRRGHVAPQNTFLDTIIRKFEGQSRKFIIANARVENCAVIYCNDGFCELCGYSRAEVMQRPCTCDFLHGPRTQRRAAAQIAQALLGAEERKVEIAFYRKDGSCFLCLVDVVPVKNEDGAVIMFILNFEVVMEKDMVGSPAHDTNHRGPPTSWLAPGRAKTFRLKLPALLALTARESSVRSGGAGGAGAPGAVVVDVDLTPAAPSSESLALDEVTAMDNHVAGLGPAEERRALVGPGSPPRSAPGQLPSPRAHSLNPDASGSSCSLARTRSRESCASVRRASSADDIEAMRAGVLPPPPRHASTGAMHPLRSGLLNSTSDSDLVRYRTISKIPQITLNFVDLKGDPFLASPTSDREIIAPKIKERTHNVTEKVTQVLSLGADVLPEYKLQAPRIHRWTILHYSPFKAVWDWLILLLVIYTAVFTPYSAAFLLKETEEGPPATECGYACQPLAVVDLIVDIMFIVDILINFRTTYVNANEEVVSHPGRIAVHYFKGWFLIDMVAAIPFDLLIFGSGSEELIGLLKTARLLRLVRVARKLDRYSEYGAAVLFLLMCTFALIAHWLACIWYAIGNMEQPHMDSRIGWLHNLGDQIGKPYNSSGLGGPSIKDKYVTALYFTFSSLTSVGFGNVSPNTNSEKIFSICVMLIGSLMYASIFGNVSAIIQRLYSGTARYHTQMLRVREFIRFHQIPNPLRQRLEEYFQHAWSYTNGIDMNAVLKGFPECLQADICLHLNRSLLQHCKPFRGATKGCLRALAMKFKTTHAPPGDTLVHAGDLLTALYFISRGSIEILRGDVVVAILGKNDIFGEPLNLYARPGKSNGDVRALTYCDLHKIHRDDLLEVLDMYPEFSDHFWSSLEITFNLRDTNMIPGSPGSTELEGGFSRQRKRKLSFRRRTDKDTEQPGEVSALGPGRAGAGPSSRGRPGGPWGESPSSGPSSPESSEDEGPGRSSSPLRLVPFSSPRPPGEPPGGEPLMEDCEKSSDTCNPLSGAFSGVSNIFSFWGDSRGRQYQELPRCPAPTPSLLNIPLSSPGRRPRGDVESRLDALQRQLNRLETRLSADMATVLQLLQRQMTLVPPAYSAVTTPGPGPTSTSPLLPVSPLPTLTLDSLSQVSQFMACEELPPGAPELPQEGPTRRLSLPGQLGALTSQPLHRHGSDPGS
Description: as §1, §2, §3

[1] = test system: CFA-induced cold allodynia; assay: Complete Freund's Adjuvant (CFA) cold allodynia rodent pain model; format: in vivo, rat; conditions: in words
Description: The compound of Formula (Ia) is also active in rodent models of pain in vivo induced by cold allodynia following chronic Complete Freund's Adjuvant-induced inflammation, as described in Example 6. […] The compound of Formula (Ia), the comparator compound of Formula (II) and ketoprofen were tested by the CFA-induced pain test method reported in del Camino et al., J. Neurosci., 30(45):15165-15174, incorporated herein by reference in its entirety. Briefly, the hind paw is sensitized to cold temperature (allodynic), by administering 0.1 mL of Complete Freund's Adjuvant (CFA) is administered to the left hind paw. 2-3 days later, the time taken for the animal to lift its CFA-injected paw is recorded compared to its un-injected normal right hind paw. […] To avoid tissue damage the maximum cut-off time is 5 minutes. Animals that are allodynic (average PWL to the first three pain behaviors<150 seconds for the CFA-injected hind paw: ˜≧50% difference between the normal and CFA-injected paw) are included in the study and subsequently randomized across treatment groups. The following day, the animals are dosed under blinded conditions. Following the 1-2 hour pre-treatment time, the post-dose PWL readings are again taken. The efficacy of the drug treatment is assessed by comparing the PWL in the drug treatment animals to those animals that receive the vehicle.

female rats = assay: 7-day i.p. repeat dose screening toxicity study; format: in vivo, rat; conditions: female rats, 50 mg/kg/day i.p. for 7 consecutive days
Description: The compound of Formula (Ia) was evaluated in a 7-day repeat dose screening toxicity study in female rats. In order to maximize systemic exposure, rats were administered compound of Formula (Ia) i.p. at 50 mg/kg/day for 7 consecutive days, to obtain the results shown in FIG. 6. Clinical chemistry parameters were evaluated on Days 3 and 8. Histopathology was performed on select organs including the liver, kidney, spleen, and lung.

Sequence of rTRPA1 (Q6RI86 whole entry): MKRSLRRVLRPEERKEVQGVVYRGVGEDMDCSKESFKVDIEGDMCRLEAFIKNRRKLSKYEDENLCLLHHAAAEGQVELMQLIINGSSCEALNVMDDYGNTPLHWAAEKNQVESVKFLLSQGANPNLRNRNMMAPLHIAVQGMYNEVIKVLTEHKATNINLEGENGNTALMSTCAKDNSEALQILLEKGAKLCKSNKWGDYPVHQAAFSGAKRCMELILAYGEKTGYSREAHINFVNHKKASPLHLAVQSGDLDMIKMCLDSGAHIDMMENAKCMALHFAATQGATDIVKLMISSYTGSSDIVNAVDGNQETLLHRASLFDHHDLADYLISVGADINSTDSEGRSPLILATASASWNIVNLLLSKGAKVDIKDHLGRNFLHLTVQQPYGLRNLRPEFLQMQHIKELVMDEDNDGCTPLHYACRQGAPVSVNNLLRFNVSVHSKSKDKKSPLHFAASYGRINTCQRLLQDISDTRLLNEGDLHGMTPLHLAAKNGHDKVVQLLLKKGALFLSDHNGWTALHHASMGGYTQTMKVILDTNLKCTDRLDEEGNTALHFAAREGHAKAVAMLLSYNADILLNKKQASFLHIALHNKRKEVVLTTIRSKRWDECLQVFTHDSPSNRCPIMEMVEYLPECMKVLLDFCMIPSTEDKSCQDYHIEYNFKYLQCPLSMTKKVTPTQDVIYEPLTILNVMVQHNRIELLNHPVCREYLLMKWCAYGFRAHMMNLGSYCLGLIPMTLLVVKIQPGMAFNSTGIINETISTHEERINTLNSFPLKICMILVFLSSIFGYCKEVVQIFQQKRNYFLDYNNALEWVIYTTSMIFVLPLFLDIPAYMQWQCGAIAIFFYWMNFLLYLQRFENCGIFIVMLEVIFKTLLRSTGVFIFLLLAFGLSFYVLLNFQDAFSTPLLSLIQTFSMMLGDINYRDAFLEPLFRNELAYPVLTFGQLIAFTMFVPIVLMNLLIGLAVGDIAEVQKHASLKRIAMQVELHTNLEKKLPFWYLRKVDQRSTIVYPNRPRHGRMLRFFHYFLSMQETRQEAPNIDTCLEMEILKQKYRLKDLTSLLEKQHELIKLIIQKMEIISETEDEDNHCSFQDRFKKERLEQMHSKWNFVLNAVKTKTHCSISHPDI

In the case of `C[C@H]1CCCN1c1ncc(-c2cccc(NC(=O)Cn3cnc4c3c(=O)n(C)c(=O)n4C)n2)cn1` [Formula (Ia)], the IC50 (rTRPA1) is reported as roughly 0.1 µM, the “Fold Selectivity Compared to TRPA1” value (hTRPC5) is reported as greater than 100 Fold and the “Fold Selectivity Compared to TRPA1” value (hTRPM8) is reported as roughly 200 Fold. The “Fold Selectivity Compared to TRPA1” value (hERG) was greater than 100 Fold, the “effect on cold allodynia” value [1] was “has an analgesic effect on cold allodynia” and the “histopathology of liver, kidney, spleen, lung” value (female rats; 50 mg/kg/day) was “No histopathological findings in the liver, kidney, spleen, or lung; also recorded: no adverse effects”. The “clinical signs, body weight, clinical chemistry parameters” value (female rats; Days 3 and 8) was “no adverse clinical signs, changes in body weight, or changes in clinical chemistry parameters were noted”.
